Patent publication US10869931B2, “Polyethylene glycol-modified angiogenesis inhibitor HM-1 and application thereof” (NANJING ANJI BIOLOGICAL TECHNOLOGY CO.,LTD, priority 2016, dated 2020)
Several values for one entry are separate records, joined by “and”; a condition that tells them apart may be missing. Identical values can stand only once. Marks after values point to notes of the source that are not given here. Where no end group is shown, it is not given here.

How the values were obtained:
[1] = test system: Uterine cancer tumor cells; test: MTT proliferation inhibition, uterine cancer cells; assay type: cell-based, human; design: concentration or dose not given beside the values; conditions: 48 h
Description: (§1) The activity of mPEG-HM-1 to inhibit the growth of various tumor cells was examined by MTT assay. The tumor cells were cultured to a concentration of 90% or more in a 37° C., 5% CO2 incubator and collected by trypsinization. The cells were resuspended in the culture medium and counted under a microscope to adjust the cell concentration to 2×10^4 cells/mL, the cell suspension was inoculated into a 96-well plate at 100 μL/well and incubated overnight at 37° C. in a 5% CO2 incubator. mPEG-HM-1 was diluted with the culture solution to each predetermined concentration. Docetaxel is diluted to the final concentration with the culture medium. After the cells were fully attached, each dilution was added to a 96-well plate (100 μL/well). The mPEG-HM-1 dilution was added as a drug-administered group, and docetaxel was added as a positive control group, and a culture solution without any drug was used as a negative control group. Incubate for 48 h at 37° C. in a 5% CO2 incubator. 5 mg/mL of MTT was added to a 96-well plate at 20 μL per well, and incubation was continued for 4 hours. The medium was aspirated, dissolved in 150 μL of DMSO per well, and gently mixed by shaking for 10 min. The absorbance was measured at a measurement wavelength of 570 nm and a reference wavelength of 630 nm using a microplate reader, and the rate of growth inhibition (proliferation inhibition, PI) was calculated. The formula is as follows: PI (%)=1−administration group/negative group
(§2) The test was repeated 3 times independently, and the results obtained by the test were expressed as mean±SD, and the test results are shown in Table 15 to Table 18.

[2] = test system: adjuvant arthritis (AA) SD rats; test: Adjuvant arthritis (AA) rat model; assay type: in vivo; conditions: for Joint swelling / Left and right paw swelling / Clinical score: AA SD rats; for Clinical score: maximum score 16
[3] = test system: Cervical cancer tumor cells; test: MTT proliferation inhibition, cervical cancer cells; assay type: cell-based, human; design: concentration or dose not given beside the values; conditions: 48 h
Description: as §1, §2

Hemangioma tumor cells = test: MTT proliferation inhibition, hemangioma cells; assay type: cell-based, human; design: concentration or dose not given beside the values; conditions: 48 h
Description: as §1, §2

[4] = test system: human retinal vascular endothelial cells (HRCEC); test: MTT proliferation of human retinal vascular endothelial cells; assay type: cell-based; conditions: 48 h; for Inhibition rate: HRCEC proliferation; for A570 nm-A630 nm: HRCEC; for A570 nm-A630 nm / inhibition rate of HRCEC proliferation: MTT
Description: The activity of the angiogenesis inhibitor polypeptide to inhibit proliferation of human retinal vascular endothelial cells was examined by MTT assay. HRCEC cells were cultured in a 37° C., 5% CO2 incubator to a density of 90% or more, and collected by trypsinization. The cells were resuspended in the culture medium and counted under a microscope to adjust the cell concentration to 3.0×10^4 cells/mL. The cell suspension was inoculated into a 96-well plate at 100 μL per well and cultured overnight at 37° C. in a 5% CO2 incubator. After the cells were completely adhered, the angiogenesis inhibitor polypeptide was added as the administration group, and Avastin was used as the positive control group, and the culture media without any drug was used as a blank control group, and the culture media were diluted to each predetermined concentration. Each dilution was separately added to a 96-well plate at 100 μL per well and incubated for 48 h at 37° C. in a 5% CO2 incubator. 20 μL of 5 mg/mL MTT was added to each well of a 96-well plate and incubation was continued for 4 h. The medium was aspirated and dissolved in 100 μL of DMSO per well. […] The formula is as follows: PI (%)=1−administration group/negative group
The test was repeated 3 times independently. The results obtained by the test were expressed as mean±SD, and a statistical T test was performed. *P<0.05 was a significant difference, and **P<0.01 was a very significant difference.

[5] = test system: Breast cancer tumor cells; test: MTT proliferation inhibition, breast cancer cells; assay type: cell-based, human; design: concentration or dose not given beside the values; conditions: 48 h
Description: as §1, §2

[6] = test system: Bladder Cancer tumor cells; test: MTT proliferation inhibition, bladder cancer cells; assay type: cell-based, human; design: concentration or dose not given beside the values; conditions: 48 h
Description: as §1, §2

[7] = test system: Kidney cancer tumor cells; test: MTT proliferation inhibition, kidney cancer cells; assay type: cell-based, human; design: concentration or dose not given beside the values; conditions: 48 h
Description: as §1, §2

[8] = test system: Gastric cancer tumor cells; test: MTT proliferation inhibition, gastric cancer cells; assay type: cell-based, human; design: concentration or dose not given beside the values; conditions: 48 h
Description: as §1, §2

[9] = 10 mg/kg subcutaneous once every three days
[10] = 20 mg/kg subcutaneous once every three days
[11] = 80 mg/kg subcutaneous once every three days
[12] = 40 mg/kg subcutaneous once every three days

Row | Substance | rate of growth inhibition [1] | Joint swelling [2, 9] | Left and right paw swelling [2, 9] | Clinical score [2, 9] | rate of growth inhibition [3] | rate of growth inhibition (Hemangioma tumor cells) | Inhibition rate ([4]; 20 μg/mL) | A570 nm-A630 nm ([4]; 20 μg/mL) | Inhibition rate ([4]; 40 μg/mL) | A570 nm-A630 nm ([4]; 40 μg/mL) | Inhibition rate ([4]; 60 μg/mL) | A570 nm-A630 nm ([4]; 60 μg/mL) | rate of growth inhibition [5] | rate of growth inhibition [6] | rate of growth inhibition [7] | rate of growth inhibition [8] | Inhibition rate ([4]; 80 μg/mL) | A570 nm-A630 nm ([4]; 80 μg/mL) | Inhibition rate ([4]; 100 μg/mL) | A570 nm-A630 nm ([4]; 100 μg/mL) | also measured
1 | mPEG2-NHS5k-Arg-Gly-Ala-Asp-Arg-Ala-Gly-Gly-Gly-Gly-Arg-Gly-Asp ({mPEG2‑NHS 5 kDa}-RGADRAGGGGRGD) [mPEG2-NHS5k-HM-1] | 55.20 ± 15.63% | 0.73 ± 0.16 mm | 3.91 ± 0.73 mm | 5.92 ± 1.04 | 49.15 ± 14.23% | 42.78 ± 12.50% | 40.94%* | 0.7807 ± 0.09103 | 50.65%** | 0.6523 ± 0.08688 | 61.08%* | 0.5144 ± 0.08531 | 45.69 ± 12.10% | 38.64 ± 12.72% | 47.52 ± 11.48% | 50.31 ± 13.29% |  |  |  |  | 
2 | mPEG2-NHS10k-Arg-Gly-Ala-Asp-Arg-Ala-Gly-Gly-Gly-Gly-Arg-Gly-Asp ({mPEG2‑NHS 10 kDa}-RGADRAGGGGRGD) [mPEG2-NHS10k-HM-1] | 60.49 ± 18.05% |  |  |  | 54.82 ± 17.10% | 48.81 ± 12.46% |  |  | 45.83%* | 0.7160 ± 0.07829 | 54.72%** | 0.5985 ± 0.07472 | 50.92 ± 13.97% | 43.78 ± 10.16% | 52.09 ± 14.91% | 55.67 ± 13.53% | 65.13%* | 0.4609 ± 0.07165 |  |  | Joint swelling [2, 10]: 0.69 ± 0.19 mm; Left and right paw swelling [2, 10]: 3.80 ± 0.73 mm; Clinical score [2, 10]: 5.53 ± 1.09; in vivo immune protection effect on adjuvant arthritis model (in words) ([2]; AA rats, subcutaneous, once every three days, vs model group): has the most significant effect; inhibition rate of HRCEC proliferation ([4]; 80 μg/mL): 65.13%
3 | mPEG2-NHS40k-Arg-Gly-Ala-Asp-Arg-Ala-Gly-Gly-Gly-Gly-Arg-Gly-Asp ({mPEG2‑NHS 40 kDa}-RGADRAGGGGRGD) [mPEG2-NHS40k-HM-1] | 62.25 ± 20.39% |  |  |  | 57.33 ± 14.28% | 50.64 ± 15.89% |  |  |  |  |  |  | 49.12 ± 16.19% | 45.60 ± 10.11% | 58.73 ± 14.31% | 56.39 ± 11.58% | 42.52%* | 0.7598 ± 0.07143 | 51.86%** | 0.6363 ± 0.07532 | Joint swelling [2, 11]: 0.73 ± 0.14 mm; Left and right paw swelling [2, 11]: 3.81 ± 0.63 mm; Clinical score [2, 11]: 5.89 ± 1.07; Inhibition rate ([4]; 120 μg/mL): 62.78%*; A570 nm-A630 nm ([4]; 120 μg/mL): 0.4920 ± 0.07953
4 | mPEG-ALD5k-Arg-Gly-Ala-Asp-Arg-Ala-Gly-Gly-Gly-Gly-Arg-Gly-Asp ({mPEG‑ALD 5 kDa}-RGADRAGGGGRGD) [mPEG-ALD5k-HM-1] | 65.99 ± 17.72% | 0.72 ± 0.17 mm | 3.92 ± 0.67 mm | 5.91 ± 1.09 | 61.12 ± 18.39% | 43.89 ± 14.14% | 42.02%* | 0.7599 ± 0.08933 | 51.93%** | 0.6301 ± 0.08011 | 61.53%* | 05042 ± 0.08135 | 49.22 ± 11.87% | 35.93 ± 10.29% | 55.43 ± 14.04% | 58.77 ± 15.49% |  |  |  |  | 
5 | mPEG-ALD20k-Arg-Gly-Ala-Asp-Arg-Ala-Gly-Gly-Gly-Gly-Arg-Gly-Asp ({mPEG‑ALD 20 kDa}-RGADRAGGGGRGD) [mPEG-ALD20k-HM-1] | 89.37 ± 23.47% |  |  |  | 75.66 ± 20.10% | 53.30 ± 16.06% |  |  |  |  | 46.21%* | 0.7050 ± 0.07965 | 65.17 ± 18.20% | 45.29 ± 11.63% | 70.23 ± 20.58% | 75.23 ± 20.62% | 55.90%** | 0.5780 ± 0.06987 | 68.15%* | 0.4175 ± 0.07301 | Joint swelling [2, 12]: 0.76 ± 0.21 mm; Left and right paw swelling [2, 12]: 3.77 ± 0.62 mm; Clinical score [2, 12]: 5.67 ± 1.08; inhibition rate of HRCEC proliferation ([4]; 100 μg/mL): 68.15% and 69.12%
6 | mPEG-ALD40k-Arg-Gly-Ala-Asp-Arg-Ala-Gly-Gly-Gly-Gly-Arg-Gly-Asp ({mPEG‑ALD 40 kDa}-RGADRAGGGGRGD) [mPEG-ALD40k-HM-1] | 82.59 ± 21.37% |  |  |  | 70.62 ± 19.14% | 50.67 ± 14.02% |  |  |  |  |  |  | 60.17 ± 19.24% | 43.22 ± 10.31% | 68.46 ± 20.98% | 70.66 ± 18.72% | 43.11%* | 0.7457 ± 0.07094 | 54.23%** | 0.5999 ± 0.07138 | Joint swelling [2, 11]: 0.73 ± 0.17 mm; Left and right paw swelling [2, 11]: 3.80 ± 0.65 mm; Clinical score [2, 11]: 5.76 ± 1.03; Inhibition rate ([4]; 120 μg/mL): 62.08%*; A570 nm-A630 nm ([4]; 120 μg/mL): 0.4970 ± 0.07653
7 | mPEG-SC5k-Arg-Gly-Ala-Asp-Arg-Ala-Gly-Gly-Gly-Gly-Arg-Gly-Asp ({mPEG‑SC 5 kDa}-RGADRAGGGGRGD) [mPEG-SC5k-HM-1] | 60.25 ± 16.09% | 0.74 ± 0.18 mm | 3.96 ± 0.71 mm | 5.95 ± 1.07 | 51.11 ± 16.20% | 43.68 ± 12.53% | 42.22%* | 0.7573 ± 0.09088 | 51.76%** | 0.6323 ± 0.08797 | 62.10%* | 0.4968 ± 0.08679 | 48.13 ± 12.17% | 35.72 ± 11.52% | 51.07 ± 12.45% | 52.12 ± 13.22% |  |  |  |  | 
